Measurements from patent US20090215921A1, “MODIFIED DIMETHYLACRYLATE MONOMER, METHOD FOR PREPARING THE SAME, AND POLYMERIC DENTAL COMPOSITE” (priority 2008, published 2009).

Legend:
[1] = Viscosity measured using a Brookfield viscosmeter; format: physicochemical; conditions: monomer
Description: 1. Viscosity is measured using a Brookfield viscosmeter.
(§1) The modified Bis-GMA obtained in Example 2 and Bis-GMA were subjected to viscosity and water absorption tests.

[2] = Water absorption for a modified Bis-GMA monomer, Karl Fischer titration; format: physicochemical
Description: 2. Water absorption for a modified Bis-GMA monomer is measured according to Karl Fischer titration.
as §1

| Structure (SMILES) | Viscosity [1] | Water absorption [2] |
| --- | --- | --- |
| C=C(C)C(=O)OCC(O)COc1ccc(C(C)(C)c2ccc(OCC(O)COC(=O)C(=C)C)cc2)cc1 (stereo not shown) [Bis-GMA, 2,2-bis[4-(2-hydroxyl-3-methacryloyloxy)phenyl] propane] | 458400 cp | 35 mg/mm^3/week |
| C=C(C)C(=O)OCC(COc1ccc(C(C)(C)c2ccc(OCC(COC(=O)C(=C)C)O[Si](CC)(CC)CC)cc2)cc1)O[Si](CC)(CC)CC (stereo not shown) [Example 2] | 440 cp | 7.4 mg/mm^3/week |
